{"source": "patent US9215889B2", "about": "“Steviol glycoside” (MORITA KAGAKU KOGYO CO., LTD., priority 2008, dated 2015)", "origin": "cited, not measured here", "conditions": "for taste quality (in words): background comparison of ST and RA"}
{"smiles": "C=C1C[C@@]23CC[C@H]4[C@@](C)(CCC[C@@]4(C)C(=O)O[C@@H]4O[C@H](CO)[C@@H](O)[C@H](O)[C@H]4O)[C@@H]2CC[C@]1(O[C@@H]1O[C@H](CO)[C@@H](O)[C@H](O[C@@H]2O[C@H](CO)[C@@H](O)[C@H](O)[C@H]2O)[C@H]1O[C@@H]1O[C@H](CO)[C@@H](O)[C@H](O)[C@H]1O)C3", "note": "[RA, Rebaudioside A]", "values": [{"measurement": "taste quality (in words)", "result": "good quality of sweetness"}]}
{"smiles": "C=C1C[C@@]23CC[C@H]4[C@@](C)(CCC[C@@]4(C)C(=O)O[C@@H]4O[C@H](CO)[C@@H](O)[C@H](O)[C@H]4O)[C@@H]2CC[C@]1(O[C@@H]1O[C@H](CO)[C@@H](O)[C@H](O)[C@H]1O[C@@H]1O[C@H](CO)[C@@H](O)[C@H](O)[C@H]1O)C3", "note": "[ST, Stevioside]", "values": [{"measurement": "taste quality (in words)", "result": "an unpleasant taste of bitterness remains in the mouth"}, {"measurement": "degree of sweetness", "setting": "relative to sucrose", "result": "300 times that of sucrose"}]}
